In PubChem BioAssay (NCI):
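Briefly, cells in 96-well plates were exposed to five compound concentrations for 48 h, and endpoints were estimated by linear interpolation. GI50 marks 50% less growth. TGI: concentration producing complete growth inhibition.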

Legend:
Experiment in all cases: inhibition of tumour cell growth, NCI panel, 48 h
[1] = tested on: HCT-116 colon
[2] = tested on: CAKI-1 renal
[3] = tested on: SF-295 CNS
[4] = tested on: SNB-75 CNS
[5] = tested on: 786-0 renal
[6] = tested on: SK-MEL-28 melanoma
[7] = tested on: TK-10 renal
[8] = tested on: HCT-15 colon
[9] = tested on: LOX IMVI melanoma
[10] = tested on: HL-60(TB) leukemia
[11] = tested on: K-562 leukemia
[12] = tested on: UACC-62 melanoma
[13] = tested on: MOLT-4 leukemia
[14] = tested on: PC-3 prostate
[15] = tested on: MCF7 breast
[16] = tested on: CCRF-CEM leukemia
[17] = tested on: OVCAR-5 ovarian
[18] = tested on: RXF 393 renal
[19] = tested on: SF-268 CNS
[20] = tested on: SK-OV-3 ovarian
[21] = tested on: T-47D breast
[22] = tested on: ACHN renal
[23] = tested on: HCC-2998 colon
[24] = tested on: UO-31 renal
[25] = tested on: M14 melanoma
[26] = tested on: NCI-H460 lung
[27] = tested on: SF-539 CNS
[28] = tested on: DU-145 prostate
[29] = tested on: NCI/ADR-RES ovarian
[30] = tested on: MALME-3M melanoma
[31] = tested on: A498 renal
[32] = tested on: HOP-62 NSCLC
[33] = tested on: HOP-92 NSCLC
[34] = tested on: NCI-H23 lung
[35] = tested on: HS 578T breast
[36] = tested on: SN12C renal
[37] = tested on: MDA-MB-435
[38] = tested on: IGROV1 ovarian

`NC(N)=Nc1ccc(Oc2cccc(Nc3ccc(Cl)c(C(F)(F)F)c3)c2)cc1` was tested, and the GI50 [1] was 1620 nM, the TGI [1] was 3130 nM and the GI50 [2] was 1730 nM. It also gave a TGI [2] of 3570 nM, a GI50 [3] of 1660 nM and a TGI [3] of 3210 nM. For the same compound, the GI50 [4] was 1200 nM, the TGI [4] was 2500 nM and the GI50 [5] was 1620 nM. The TGI [5] was 3190 nM, the GI50 [6] was 1740 nM and the TGI [6] was 3160 nM. For the same compound, the GI50 [7] was 1940 nM, the TGI [7] was 4750 nM and the GI50 [8] was 1920 nM. It also gave a TGI [8] of 4360 nM, a GI50 [9] of 1690 nM and a TGI [9] of 3150 nM. It also gave a GI50 [10] of 1990 nM, a TGI [10] of 4290 nM and a GI50 [11] of 2500 nM. The TGI [11] was 6510 nM, the GI50 [12] was 1750 nM and the TGI [12] was 3230 nM. For the same compound, the GI50 [13] was 1950 nM, the TGI [13] was 4570 nM and the GI50 [14] was 1540 nM. The TGI [14] was 3000 nM, the GI50 [15] was 1720 nM and the TGI [15] was 3480 nM. For the same compound, the GI50 [16] was 2680 nM, the TGI [16] was 8960 nM and the GI50 [17] was 1560 nM. The TGI [17] was 2940 nM, the GI50 [18] was 1620 nM and the TGI [18] was 3050 nM. It also gave a GI50 [19] of 1580 nM, a TGI [19] of 3050 nM and a GI50 [20] of 2690 nM. For the same compound, the TGI [20] was 6670 nM, the GI50 [21] was 1750 nM and the TGI [21] was 3950 nM. For the same compound, the GI50 [22] was 2790 nM, the TGI [22] was 8470 nM and the GI50 [23] was 1750 nM. The TGI [23] was 3240 nM, the GI50 [24] was 2950 nM and the TGI [24] was 11700 nM. It also gave a GI50 [25] of 1820 nM, a TGI [25] of 3450 nM and a GI50 [26] of 1880 nM. For the same compound, the TGI [26] was 3560 nM, the GI50 [27] was 1710 nM and the TGI [27] was 3140 nM. For the same compound, the GI50 [28] was 1980 nM, the TGI [28] was 3720 nM and the GI50 [29] was 14800 nM. For the same compound, the TGI [29] was 34300 nM, the GI50 [30] was 1720 nM and the TGI [30] was 3680 nM. The GI50 [31] was 1640 nM, the TGI [31] was 3200 nM and the GI50 [32] was 1600 nM. For the same compound, the TGI [32] was 3160 nM, the GI50 [33] was 1290 nM and the TGI [33] was 2650 nM. It also gave a GI50 [34] of 1710 nM, a TGI [34] of 3210 nM and a GI50 [35] of 1930 nM. The TGI [35] was 4620 nM, the GI50 [36] was 1690 nM and the TGI [36] was 3450 nM. The GI50 [37] was 1670 nM, the TGI [37] was 3080 nM and the GI50 [38] was 1270 nM. The TGI [38] was 2740 nM.
